Experimental data from patent US9375000B2, “Pesticidal arylpyrrolidines” (Bayer Intellectual Property GmbH, priority 2011, dated 2016).

Assays:
Type in all cases: in vivo
[1] = system: Two-Spotted Spider Mite (Tetranychus urticae); assay: Two-spotted spider mite (Tetranychus urticae) spray test on kidney bean; details: after 7 days; for pest or weed control at 20 ppm: Tetranychus urticae, 168 h, read-out: acaricidal activity
Procedure: (§1) Unless not mentioned otherwise, the test solutions were prepared as follows:
(§2) Solvent: 3 parts by weight Dimethylformamide
(§3) Emulsifier: 1 part by weight Polyoxyethylene alkyl phenyl ether
(§4) In order to make an appropriate formulation of an active compound, 1 part by weight of the active compound is mixed with the above mentioned amount of solvent and emulsifier and the mixture is diluted with water to a prescribed concentration. Ammonium salt or ammonium salt and penetration enhancer in a dosage of 1000 ppm are added to the desired concentration if necessary.
50 to 100 adult mites of Tetranychus urticae were inoculated to leaves of kidney bean at two-leaf stage planted in a pot of 6 cm in diameter. After one day, test solution at the appropriate concentration was sprayed thereon in a sufficient amount using a spray gun. After the spraying, the plant pot was placed inside a greenhouse, and after 7 days, the acaricidal activity was calculated. An acaricidal activity of 100% means that all mites were killed, whereas an acaricidal activity of 0% means that no mite was killed.

[2] = system: Cucurbit Leaf Beetle (Aulacophora femoralis); assay: Cucurbit leaf beetle (Aulacophora femoralis) cucumber leaf dip test; details: after 7 days
Procedure: as §1, §2, §3, §4
Leaves of cucumber were immersed in the test solution at the appropriate concentration, and the leaves were dried in air. The leaves were then put in a plastic cup containing sterilized black soil and five Aulacophora femoralis at second instar larvae were released in the cup. The cups were placed in a temperature-controlled chamber at 25° C. After 7 days, the number of dead larvae was counted, and thus the insecticidal activity was calculated. An insecticidal activity of 100% means that all larvae were killed, whereas an insecticidal activity of 0% means that no larva was killed.

[3] = system: Larvae of Spodoptera litura; assay: Larvae of Spodoptera litura, method using artificial feeds; details: artificial feed, after 7 days; for pest or weed control at 20 ppm: Spodoptera litura, 168 h, read-out: insecticidal activity (pesticidal ratio)
Procedure: as §1, §2, §3, §4
[A Method Using Artificial Feeds (Trade Name: Insecta LFM, Manufactured by Nosan Corporation)]
Powdery artificial feeds (2.3 g) were added to a plastic cup (diameter: 7.5 cm, height: 4 cm) to achieve a certain thickness. Water-diluted liquid (5 ml) of the active compound prepared above having predetermined concentration was evenly poured thereto and allowed to stand until the feeds were solidified. Five of the 3rd-instar larvae of Spodoptera litura were released in respective cups, and covered. The cups were put in a temperature controlled room at 25° C. and humidity of 50 to 60%, and the number of dead larvae after 7 days was determined to calculate the pesticidal ratio. 100% pesticidal ratio means death of all the larvae, while 0% pesticidal ratio means no dead larvae.

[4] = active compound concentration 20 ppm
[5] = active compound concentration 4 ppm

Compound | acaricidal activity [1, 4] [%] | insecticidal activity [2, 4] [%] | insecticidal activity (pesticidal ratio) [3, 4] [%] | also measured
O=C(NCc1ccc(N2CCC(c3cc(Cl)c(Cl)c(Cl)c3)(C(F)(F)F)C2O)cc1F)C1CC1 (mixture of isomers) [A1-154] | 100 | 100 | 100 | –
CC(C)CC(=O)NCc1ccc(N2CCC(c3cc(Cl)c(Cl)c(Cl)c3)(C(F)(F)F)C2O)nc1C(F)(F)F (stereo not drawn) [A3-288] | 100 | – | 100 | acaricidal activity [1, 5]: 100%; insecticidal activity (pesticidal ratio) [3, 5]: 100%
CCC(=O)NCc1ccc(N2CCC(c3cc(Cl)c(Cl)c(Cl)c3)(C(F)(F)F)C2O)cc1Cl (stereo not drawn) [A1-13] | 100 | 100 | 100 | –
O=C(NCc1cnc(N2CCC(c3cc(C(F)(F)F)cc(C(F)(F)F)c3)(C(F)(F)F)C2O)nc1C(F)(F)F)C1CC1 (stereo not drawn) [A4-27] | 100 | 100 | 100 | –
CS(=O)(=O)CC(=O)NCc1ccc(N2CCC(c3cccc(C(F)(F)F)c3)(C(F)(F)F)C2O)cc1C(F)(F)F (racemic) [A1-303] | 100 | 100 | – | –
CS(=O)(=O)CC(=O)NCc1ccc(N2CCC(c3cc(Cl)cc(Cl)c3)(C(F)(F)F)C2O)cc1C(F)(F)F (stereo not drawn) [A1-44] | 100 | 100 | 100 | –
O=C(NCc1ccc(N2CCC(c3cc(Cl)c(F)c(Cl)c3)(C(F)(F)F)C2O)cc1C(F)(F)F)C1CC1 (stereo not drawn) [A1-275] | 100 | 100 | 100 | –
CCC(=O)NCc1ccc(N2CCC(c3cc(Cl)c(Cl)c(Cl)c3)(C(F)(F)F)C2O)cc1Br (stereo not drawn) [A1-162, N-{2-bromo-4-[2-hydroxy-3-(3,4,5-trichlorophenyl)-3-(trifluoromethyl)pyrrolidin-1-yl]benzyl}propanamide] | – | – | – | pest or weed control at 20 ppm [1, 4]: 100%; pest or weed control at 20 ppm ([2]; Aulacophora, foliar, 168 h, active compound concentration 20 ppm, read-out: insecticidal activity): 100%; pest or weed control at 20 ppm [3, 4]: 100%
C[S+]([O-])CC(=O)NCc1ccc(N2CCC(c3cc(Cl)cc(Cl)c3)(C(F)(F)F)C2O)cc1C(F)(F)F (stereo not drawn) [A1-43] | 100 | 100 | 100 | –
O=C(CC(F)(F)F)NCc1ccc(N2CCC(c3cc(Cl)cc(Cl)c3)(C(F)(F)F)C2O)nc1C(F)(F)F (stereo not drawn) [A3-7] | 100 | 100 | 100 | –
CCC(=O)NCc1ccc(N2CCC(c3cc(Cl)cc(Cl)c3)(C(F)(F)F)C2O)cc1Cl (stereo not drawn) [A1-2] | 100 | 100 | – | –
CC(NC(=O)C1CC1)c1ccc(N2CCC(c3cc(Cl)c(Cl)c(Cl)c3)(C(F)(F)F)C2O)cc1 (mixture of isomers) [A2-16] | 100 | 100 | 100 | –
CC(C)(C)OC(=O)NCc1ccc(N2CCC(c3cc(Cl)c(Cl)c(Cl)c3)(C(F)(F)F)C2O)cc1Cl (mixture of isomers) [A1-68] | – | – | – | acaricidal activity ([1]; active compound concentration 100 ppm): 100%
CC(=O)NCc1ccc(N2CCC(c3cc(Cl)c(Cl)c(Cl)c3)(C(F)(F)F)C2O)nc1C(F)(F)F (stereo not drawn) [A3-12] | 100 | 100 | 100 | –
O=C(CC(F)(F)F)NCc1ccc(N2CCC(c3cc(Cl)c(Cl)c(Cl)c3)(C(F)(F)F)C2O)nc1Br (stereo not drawn) [A3-117] | 100 | 100 | 100 | –
CSCC(=O)NCc1ccc(N2CCC(c3cc(Cl)cc(Cl)c3)(C(F)(F)F)C2O)cc1C(F)(F)F (stereo not drawn) [A1-42] | 100 | 100 | 100 | –
CCC(=O)NCc1ccc(N2CCC(c3cc(C(F)(F)F)cc(C(F)(F)F)c3)(C(F)(F)F)C2O)cc1C (mixture of isomers) [A1-184] | 100 | 100 | 100 | –
COCCC(=O)NCc1ccc(N2CCC(c3cc(Cl)cc(Cl)c3)(C(F)(F)F)C2O)cc1C(F)(F)F (stereo not drawn) [A1-41] | 100 | – | 100 | –
CS(=O)(=O)CC(=O)NCc1ccc(N2CCC(c3cc(Cl)c(Cl)c(Cl)c3)(C(F)(F)F)C2O)cc1C(F)(F)F (mixture of isomers) [A1-55] | 100 | 100 | 100 | –

Compound | acaricidal activity [1, 4] [%] | insecticidal activity [2, 4] [%] | insecticidal activity (pesticidal ratio) [3, 4] [%] | also measured
O=C(NCc1ccc(N2CCC(c3cc(F)c(F)c(F)c3)(C(F)(F)F)C2O)cc1C(F)(F)F)C1CC1 (stereo not drawn) [A1-264] | 100 | 100 | – | insecticidal activity [2, 5]: 100%; insecticidal activity (pesticidal ratio) [3, 5]: 80%
O=C(CC(F)(F)F)NCc1cnc(N2CCC(c3cc(C(F)(F)F)cc(C(F)(F)F)c3)(C(F)(F)F)C2O)nc1C(F)(F)F (stereo not drawn) [A4-29] | 100 | 100 | 100 | –
CCC(=O)NCc1ccc(N2CCC(c3cc(Cl)c(Cl)c(Cl)c3)(C(F)(F)F)C2O)nc1C (stereo not drawn) [A3-79, N-({6-[2-hydroxy-3-(3,4,5-trichlorophenyl)-3-(trifluoromethyl)-pyrrolidin-1-yl]-2-methylpyridin-3-yl}methyl)propanamide] | – | – | – | pest or weed control at 20 ppm [1, 4]: 100%; pest or weed control at 20 ppm [3, 4]: 100%
CCNC(=O)NCc1ccc(N2CCC(c3cc(Cl)c(Cl)c(Cl)c3)(C(F)(F)F)C2O)nc1C(F)(F)F (stereo not drawn) [A3-297] | 100 | – | 100 | acaricidal activity [1, 5]: 100%; insecticidal activity (pesticidal ratio) [3, 5]: 100%
N#CCC(=O)NCc1ccc(N2CCC(c3cc(Cl)c(Cl)c(Cl)c3)(C(F)(F)F)C2O)cc1Br (stereo not drawn) [A1-525] | – | – | – | acaricidal activity [1, 5]: 100%; insecticidal activity (pesticidal ratio) [3, 5]: 100%
COCCC(=O)NCc1ccc(N2CCC(c3cc(Cl)cc(Cl)c3)(C(F)(F)F)C2O)cc1Cl (stereo not drawn) [A1-8] | 100 | 100 | – | –
COCCC(=O)NCc1ccc(N2CCC(c3cc(C(F)(F)F)cc(C(F)(F)F)c3)(C(F)(F)F)C2O)cc1C (mixture of isomers) [A1-190] | 100 | 100 | – | –
CCC(=O)NCc1ccc(N2CCC(c3cc(F)cc(Cl)c3)(C(F)(F)F)C2O)cc1C(F)(F)F (stereo not drawn) [A1-239] | 100 | – | – | –
N#CCC(=O)NCc1ccc(N2CCC(c3cc(Cl)c(Cl)c(Cl)c3)(C(F)(F)F)C2O)nc1C(F)(F)F (stereo not drawn) [A3-421] | 100 | – | – | insecticidal activity (pesticidal ratio) [3, 5]: 100%
CC(=O)NCc1ccc(N2CCC(c3cc(Cl)c(F)c(Cl)c3F)(C(F)(F)F)C2O)nc1Br (stereo not drawn) [A3-322] | 98 | – | – | insecticidal activity (pesticidal ratio) [3, 5]: 100%
O=C(CC1CC1)NCc1ccc(N2CCC(c3cccc(C(F)(F)F)c3)(C(F)(F)F)C2O)nc1C(F)(F)F (racemic) [A3-226] | 100 | 100 | – | acaricidal activity [1, 5]: 100%; insecticidal activity [2, 5]: 100%
CC(=O)NCc1ccc(N2CCC(c3cc(Cl)c(Cl)c(Cl)c3)(C(F)(F)F)C2O)cc1Cl (stereo not drawn) [A1-12] | 100 | – | 100 | –
CC(=O)NCc1ccc(N2CCC(c3cc(Cl)c(Cl)c(Cl)c3)(C(F)(F)F)C2O)cc1C(F)(F)F (stereo not drawn) [A1-45] | 100 | – | 100 | –
O=C(CC1CC1)NCc1ccc(N2CCC(c3cc(Cl)cc(Cl)c3)(C(F)(F)F)C2O)cc1C(F)(F)F (stereo not drawn) [A1-39] | 100 | 100 | – | –
CCCC(=O)NCc1ccc(N2CCC(c3cc(Cl)cc(Cl)c3)(C(F)(F)F)C2O)cc1C(F)(F)F (stereo not drawn) [A1-36] | 100 | – | 100 | –
CC(=O)NC(C)c1ccc(N2CCC(c3cc(Cl)c(Cl)c(Cl)c3)(C(F)(F)F)C2O)cc1 (mixture of isomers) [A2-12] | 100 | – | 100 | –
CCC(=O)NCc1ccc(N2CCC(c3cc(Cl)cc(Cl)c3)(C(F)(F)F)C2O)cc1CC (mixture of isomers) [A1-85] | 90 | – | – | –
N#CCC(=O)NCc1cnc(N2CCC(c3cc(Cl)cc(Cl)c3)(C(F)(F)F)C2O)nc1C(F)(F)F (stereo not drawn) [A4-435] | 100 | – | – | –
